One block for each compound: values may come before it. Calls of active or inactive are those of the source.
What was measured:
[1] = biological target: T1, Hexokinase HKDC1 (Homo sapiens, UniProt Q2TB90); assay: SAR analysis of small molecule inhibitors of hexokinase domain containing I (HKDC1). [Related pubchem assays (depositor defined):AID493160, AID493190]; type: functional
T1 sequence (Q2TB90 whole entry): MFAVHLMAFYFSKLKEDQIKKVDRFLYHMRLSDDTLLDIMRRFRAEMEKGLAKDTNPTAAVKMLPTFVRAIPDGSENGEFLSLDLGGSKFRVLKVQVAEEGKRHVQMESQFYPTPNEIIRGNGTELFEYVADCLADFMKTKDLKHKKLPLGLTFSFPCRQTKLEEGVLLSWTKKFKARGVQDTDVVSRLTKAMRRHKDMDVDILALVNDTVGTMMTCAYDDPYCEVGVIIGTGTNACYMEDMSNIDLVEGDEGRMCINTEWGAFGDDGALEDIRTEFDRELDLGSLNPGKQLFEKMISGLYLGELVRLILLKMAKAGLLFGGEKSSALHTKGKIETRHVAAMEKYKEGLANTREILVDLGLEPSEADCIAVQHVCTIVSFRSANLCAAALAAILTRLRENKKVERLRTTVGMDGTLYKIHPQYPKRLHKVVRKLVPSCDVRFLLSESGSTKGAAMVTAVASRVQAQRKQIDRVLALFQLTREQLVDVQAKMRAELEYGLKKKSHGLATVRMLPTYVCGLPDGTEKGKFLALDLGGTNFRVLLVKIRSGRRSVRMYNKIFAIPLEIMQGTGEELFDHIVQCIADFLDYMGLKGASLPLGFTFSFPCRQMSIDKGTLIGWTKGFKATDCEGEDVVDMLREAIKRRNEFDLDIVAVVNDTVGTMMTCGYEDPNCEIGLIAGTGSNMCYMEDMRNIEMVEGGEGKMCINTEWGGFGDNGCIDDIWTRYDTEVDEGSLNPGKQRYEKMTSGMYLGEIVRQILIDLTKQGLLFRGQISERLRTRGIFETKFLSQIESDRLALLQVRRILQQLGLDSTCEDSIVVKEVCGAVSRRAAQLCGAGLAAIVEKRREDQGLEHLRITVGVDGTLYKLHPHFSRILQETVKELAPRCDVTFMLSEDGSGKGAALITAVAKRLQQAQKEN

[2] = biological target: T2, Hexokinase-1 (Homo sapiens, UniProt P19367); assay: SAR analysis of small molecule inhibitors of hexokinase domain containing I (HKDC1) in the hexokinase 1 selectivity assay. [Related pubchem assays (depositor defined):AID493160, AID493190]; type: functional
T2 sequence (P19367 whole entry): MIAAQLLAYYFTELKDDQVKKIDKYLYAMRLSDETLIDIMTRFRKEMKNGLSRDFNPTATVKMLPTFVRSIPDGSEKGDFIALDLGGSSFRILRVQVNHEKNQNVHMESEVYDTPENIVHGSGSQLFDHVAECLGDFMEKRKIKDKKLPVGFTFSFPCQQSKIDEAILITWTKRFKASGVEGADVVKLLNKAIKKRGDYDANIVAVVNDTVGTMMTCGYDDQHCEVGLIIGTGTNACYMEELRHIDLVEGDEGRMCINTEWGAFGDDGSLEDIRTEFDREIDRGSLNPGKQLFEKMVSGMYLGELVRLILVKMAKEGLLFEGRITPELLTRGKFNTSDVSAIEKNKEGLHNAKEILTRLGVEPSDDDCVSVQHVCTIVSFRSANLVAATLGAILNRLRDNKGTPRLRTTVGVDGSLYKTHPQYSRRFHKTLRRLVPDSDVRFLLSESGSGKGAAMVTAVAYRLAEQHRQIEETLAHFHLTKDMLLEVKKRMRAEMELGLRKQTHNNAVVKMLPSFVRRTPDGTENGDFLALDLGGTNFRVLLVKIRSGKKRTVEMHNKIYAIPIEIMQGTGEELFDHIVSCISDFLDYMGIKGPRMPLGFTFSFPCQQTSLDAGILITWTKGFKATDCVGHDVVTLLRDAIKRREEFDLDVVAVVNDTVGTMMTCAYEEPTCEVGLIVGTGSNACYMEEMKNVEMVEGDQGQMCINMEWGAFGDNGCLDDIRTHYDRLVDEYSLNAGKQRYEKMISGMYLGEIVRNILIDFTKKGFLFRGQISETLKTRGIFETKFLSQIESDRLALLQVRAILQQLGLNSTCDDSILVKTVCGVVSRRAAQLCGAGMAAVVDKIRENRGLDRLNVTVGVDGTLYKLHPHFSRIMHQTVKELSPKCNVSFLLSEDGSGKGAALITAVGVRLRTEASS

[3] = biological target: FAD-linked sulfhydryl oxidase ALR (Homo sapiens, UniProt P55789); assay: inhibitors of human ALR sulfhydryl oxidase, dose response, biochemical, H2O2 detection, luminescence, cherry-pick (AID 493248)
[4] = biological target: Beta-2 adrenergic receptor (Homo sapiens, UniProt P07550); assay: beta2AR agonists driving receptor internalization, dose response, cell-based, FAP fluorogen, flow cytometry, cherry pick 1 (AID 588763); type: functional
[5] = biological target: T3, Heat shock factor protein 1 (Mus musculus, UniProt P38532); assay: inhibition of MG132-induced HSE-luciferase signal, confirmation, cell-based, NIH3T3, luminescence, dose retest (AID 2382); type: functional;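 also: NIH3T3 fibroblasts with HSF1-driven luciferase reporter stressed by proteasome inhibitor MG132; luminescence from HSF1-driven luciferase expression after 8 hours of MG132 stress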
T3 sequence (P38532 whole entry): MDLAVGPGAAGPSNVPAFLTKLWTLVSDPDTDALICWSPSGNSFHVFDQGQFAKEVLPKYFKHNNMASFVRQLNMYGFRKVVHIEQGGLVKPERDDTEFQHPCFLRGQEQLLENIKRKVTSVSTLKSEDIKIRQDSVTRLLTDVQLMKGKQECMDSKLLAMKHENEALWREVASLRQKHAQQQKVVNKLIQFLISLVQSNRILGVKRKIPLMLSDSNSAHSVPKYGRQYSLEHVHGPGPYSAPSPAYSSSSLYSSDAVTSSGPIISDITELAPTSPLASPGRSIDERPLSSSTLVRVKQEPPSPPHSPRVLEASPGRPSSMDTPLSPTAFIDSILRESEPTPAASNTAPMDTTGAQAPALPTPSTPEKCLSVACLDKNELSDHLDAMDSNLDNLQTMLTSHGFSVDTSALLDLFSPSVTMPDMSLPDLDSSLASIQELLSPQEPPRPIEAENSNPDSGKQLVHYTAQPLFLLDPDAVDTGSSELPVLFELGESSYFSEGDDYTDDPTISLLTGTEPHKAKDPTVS

[6] = biological target: Luciferin 4-monooxygenase (Photuris pensylvanica, UniProt Q27757); assay: firefly luciferase enzyme inhibitors, dose response, counter-screen for HSF-1 reporter inhibitor project, biochemical, Cell Titer Glo, luminescence, cherry-picks (AID 588847)
[7] = tested on: HEK293; assay: inhibitors of LMP1-driven NF-kB reporter, dose response, cell-based, HEK293, luciferase, cherry-pick (AID 588343); type: functional; details: Homo sapiens
[8] = biological target: Luciferin 4-monooxygenase (Photinus pyralis, UniProt P08659); assay: Counter Screen for Luciferase-based Assay Positives. [Related pubchem assays: 620, 618, 411 ]
[9] = tested on: HT-1080; assay: cytotoxicity in HT1080 fibrosarcoma cells, cell-based, fluorescence readout (AID 620); type: functional; details: Homo sapiens
[10] = biological target: T2, Hexokinase-1; assay: HK1 enzyme inhibition by HKDC1 hits, SAR follow-up, selectivity assay for HKDC1 inhibitor project, biochemical, set 2, resazurin fluorescence coupled readout (AID 588356); type: functional
[11] = biological target: T1, Hexokinase HKDC1; assay: HKDC1 hexokinase inhibitors, SAR follow-up, biochemical, set 2 (AID 588355); type: functional

Chain of Luciferin 4-monooxygenase (Photuris pensylvanica, UniProt Q27757) (Q27757 whole entry): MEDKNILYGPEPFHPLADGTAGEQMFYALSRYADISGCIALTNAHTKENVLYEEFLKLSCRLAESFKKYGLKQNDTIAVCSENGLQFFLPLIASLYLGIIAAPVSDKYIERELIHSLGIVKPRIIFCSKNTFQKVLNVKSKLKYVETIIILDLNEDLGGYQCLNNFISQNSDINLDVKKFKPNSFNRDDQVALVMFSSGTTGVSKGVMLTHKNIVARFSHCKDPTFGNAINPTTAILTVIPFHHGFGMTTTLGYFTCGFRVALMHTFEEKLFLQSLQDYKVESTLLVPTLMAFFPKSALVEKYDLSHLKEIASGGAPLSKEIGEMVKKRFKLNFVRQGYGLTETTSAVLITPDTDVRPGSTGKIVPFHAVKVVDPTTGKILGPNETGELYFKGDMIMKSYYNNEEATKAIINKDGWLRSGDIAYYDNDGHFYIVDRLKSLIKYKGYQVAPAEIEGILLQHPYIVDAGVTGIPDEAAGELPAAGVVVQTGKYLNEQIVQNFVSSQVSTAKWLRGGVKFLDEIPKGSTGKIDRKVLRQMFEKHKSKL
Chain of Beta-2 adrenergic receptor (P07550 whole entry): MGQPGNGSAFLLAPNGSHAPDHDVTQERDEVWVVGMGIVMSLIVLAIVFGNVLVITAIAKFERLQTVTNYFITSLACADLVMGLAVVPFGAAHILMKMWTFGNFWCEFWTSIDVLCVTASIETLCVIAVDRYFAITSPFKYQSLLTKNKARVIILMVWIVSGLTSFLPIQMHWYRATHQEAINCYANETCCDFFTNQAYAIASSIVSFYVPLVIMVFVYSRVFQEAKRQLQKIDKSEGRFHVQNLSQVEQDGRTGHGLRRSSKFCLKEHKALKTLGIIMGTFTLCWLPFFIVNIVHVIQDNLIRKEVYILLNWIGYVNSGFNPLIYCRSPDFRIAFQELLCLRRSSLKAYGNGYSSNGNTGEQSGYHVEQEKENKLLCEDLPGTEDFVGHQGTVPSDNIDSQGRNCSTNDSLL
Chain of FAD-linked sulfhydryl oxidase ALR (P55789 whole entry): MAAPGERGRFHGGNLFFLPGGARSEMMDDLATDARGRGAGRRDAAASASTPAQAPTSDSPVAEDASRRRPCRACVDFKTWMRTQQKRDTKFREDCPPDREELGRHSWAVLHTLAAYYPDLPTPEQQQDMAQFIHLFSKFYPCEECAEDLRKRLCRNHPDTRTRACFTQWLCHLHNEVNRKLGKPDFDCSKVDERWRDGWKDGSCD
Chain of Luciferin 4-monooxygenase (Photinus pyralis, UniProt P08659) (P08659 whole entry): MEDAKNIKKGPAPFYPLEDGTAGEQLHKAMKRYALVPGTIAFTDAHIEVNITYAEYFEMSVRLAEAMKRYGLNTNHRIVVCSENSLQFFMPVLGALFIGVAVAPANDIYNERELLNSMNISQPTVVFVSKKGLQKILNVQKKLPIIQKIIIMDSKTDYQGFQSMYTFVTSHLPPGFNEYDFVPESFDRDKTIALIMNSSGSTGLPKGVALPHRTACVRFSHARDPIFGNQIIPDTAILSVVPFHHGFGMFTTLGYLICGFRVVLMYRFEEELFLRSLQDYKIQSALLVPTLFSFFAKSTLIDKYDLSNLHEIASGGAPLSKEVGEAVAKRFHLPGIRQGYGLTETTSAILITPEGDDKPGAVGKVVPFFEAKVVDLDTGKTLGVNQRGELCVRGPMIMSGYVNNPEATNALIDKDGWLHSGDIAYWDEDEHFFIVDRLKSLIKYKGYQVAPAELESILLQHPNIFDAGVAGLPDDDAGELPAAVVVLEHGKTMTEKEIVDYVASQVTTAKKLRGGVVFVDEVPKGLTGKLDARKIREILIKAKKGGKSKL

IC50 [1]: > 80 µM (inactive)
IC50 [2]: > 80 µM (inactive)
AC50 [3]: 0.679 µM (active)
Compound: N#Cc1ccc(CSc2nnc(NC(=O)c3ccc(O)nc3)s2)cc1

EC50 [4]: 12.1 µM (inactive)
Compound: CCCCN(CCCC)c1nc(OC)nc(-n2nnc(C(C)=O)c2C)n1

EC50 [5]: < 0.16 µM (active)
AC50 [6]: 3.37 µM (active)
Compound: CC(C)(C)c1ccc(/C=N/Nc2cccc(C(=O)O)c2)cc1

Compound: Cc1nc(Nc2nc3ccccc3o2)nc2c1CCC2
AC50 [7]: 2.54 µM (active)
EC50 [8]: 5.88 µM (active)
EC50 [9]: > 50 µM (not active)

IC50 [10]: > 80 µM (inactive)
IC50 [11]: > 80 µM (inactive)
Compound: CNc1cc2n(c(=O)n1)CCc1cc(OC)c(OC)cc1-2

Reference: ChEMBL document CHEMBL1201862, “PubChem BioAssay data set” (2004)
